One assay deals with HLA-DRB1*04:04 (Homo sapiens, UniProt P01903+P01911, A100R/A169T/F76Y/I96L/K127E/L162R/M171V/N62H/P40V/Q125Y/R42H/S133A/S149N/S66Y/V209L/W38E). In words: Competitive inhibition HLA II binding assay. As to conditions: competition with radiolabeled probe peptide, purified HLA II, 0.3 nM–30 µM, 2-day incubation; mean of three or more independent assays.
A further assay addresses HLA-DRB1*09:01 (Homo sapiens, UniProt P01903+P01911, A100R/A103E/D57H/D86V/F55Y/F60I/F76Y/I96F/K127E/L162R/M171V/P40D/Q125H/Q99R/R33Q/R42F/S133A/S66N/T210M/V115G/W38K/Y107V/Y59G/Y89S). The assay can be described thus: Competitive inhibition HLA II binding assay. The conditions noted are these: competition with radiolabeled probe peptide, purified HLA II, 0.3 nM–30 µM, 2-day incubation; mean of three or more independent assays.

In another assay the target is HLA-DRB1*07:01 (Homo sapiens, UniProt P01903+P01911, A100R/A102G/A103Q/D57E/D86V/E43K/F76Y/K127E/L162R/M171V/P40G/Q125H/Q99D/R33Q/R42Y/R54Q/S133A/S66F/T210M/V115G/Y107V/Y59L/Y89S). The assay can be described thus: Competitive inhibition HLA II binding assay. The conditions noted are these: competition with radiolabeled probe peptide, purified HLA II, 0.3 nM–30 µM, 2-day incubation; mean of three or more independent assays.

The target of a further assay is HLA-DRB1*13:02 (Homo sapiens, UniProt P01903+P01911, A100E/A169T/K41T/L162R/M171V/P40S/Q125H/Q178H/Q39Y/Q99D/R42S/S66N/T262R/V115G/W38E/Y61H). The assay can be described thus: Competitive inhibition HLA II binding assay. As to conditions: competition with radiolabeled probe peptide, purified HLA II, 0.3 nM–30 µM, 2-day incubation; mean of three or more independent assays.

The subject of assay [1] is PBMCs from three HLA II-typed donors. In words: IFNγ-ELISPOT assay. The class given is cell-based, human. As to conditions: 10 μM peptide, 1 × 10^5 PBMCs, 24 h, triplicate; positive if >60 SFC/10^6 PBMCs after background subtraction. The procedure:
Peptide-specific IFNγ production by PBMCs from HLA II-typed donors was detected by standard IFNγ ELISPOT assays. Briefly, 96-well PVDF plates (Millipore, Darmstadt, Germany) were coated with anti-IFNγ (1-D1K mAb, Mabtech, Stockholm, Sweden) and 1 × 10^5 PBMCs were pleated with RPMI 1640 (Gibco, Waltham, MA, USA), supplemented with 10% of fetal bovine serum (Gibco, Waltham, MA, USA), 100 µg/mL streptomycin, 100 U/mL penicillin, and 2 mM L-glutamine (Lonza, Basel, Switzerland). Individual RV peptides were added at 10 μM. Plates were incubated at 37 °C and 5% CO2 and, after 24 h, were processed according to the manufacturer’s instructions. PBMCs incubated with 10 μg/mL phytohemagglutinin (PHA) or without any stimuli were used as positive and background controls, respectively. The assay was run in triplicate for each individual peptide. The number of IFNγ-secreting cells (spot forming cells (SFCs)) was determined with an ELISPOT reader (ImmunoSpot 5.0, CTL Analyzers, Shaker Heights, OH, USA).

In a further assay the target is HLA-DRB1*08:02 (Homo sapiens, UniProt P01903+P01911, A100R/A103L/A169T/F76Y/H45Y/I96F/K41T/L162R/M171V/P40S/Q125H/Q178H/Q39Y/Q99D/R218S/R42G/S66Y/V115G/W38E). The assay can be described thus: Competitive inhibition HLA II binding assay. The conditions noted are these: competition with radiolabeled probe peptide, purified HLA II, 0.3 nM–30 µM, 2-day incubation; mean of three or more independent assays.

The target in another assay is HLA-DRB1*11:01 (Homo sapiens, UniProt P01903+P01911, A100R/A169T/A87E/I96F/K41T/L162R/M171V/P40S/Q125H/Q178H/Q39Y/Q99D/R42S/S66Y/T262R/V115G/W38E). The assay can be described thus: Competitive inhibition HLA II binding assay. The conditions noted are these: competition with radiolabeled probe peptide, purified HLA II, 0.3 nM–30 µM, 2-day incubation; mean of three or more independent assays.

In a further assay the target is HLA-DRB1*11:04 (Homo sapiens, UniProt P01903+P01911, A100R/A169T/A87E/I96F/K41T/L162R/M171V/P40S/Q125H/Q178H/Q39Y/Q99D/R42S/S66Y/T262R/W38E). The assay can be described thus: Competitive inhibition HLA II binding assay. The conditions noted are these: competition with radiolabeled probe peptide, purified HLA II, 0.3 nM–30 µM, 2-day incubation; mean of three or more independent assays.

The target in a further assay is HLA-DRB1*03:01 (Homo sapiens, UniProt P01903+P01911, A100K/A102G/A103R/A169T/F55Y/I96L/K41T/L162R/M171V/P40S/Q125H/Q178H/Q39Y/R42S/S66N/T106N/T262R/W38E/Y61H). In words: Competitive inhibition HLA II binding assay. The conditions noted are these: competition with radiolabeled probe peptide, purified HLA II, 0.3 nM–30 µM, 2-day incubation; mean of three or more independent assays.

pIC50: −log10 of the molar value. Ends that are not written are not given here.

The term pIC50 denotes the negative decadic logarithm of the IC50, by convention in mol/L. In the case of `CC[C@H](C)[C@H](NC(=O)CNC(=O)[C@H](CCCCN)NC(=O)[C@H](CCC(=O)O)NC(=O)[C@H](CC(C)C)NC(=O)[C@@H](NC(=O)[C@H](CC(=O)O)NC(=O)[C@H](CCCCN)NC(=O)[C@@H](N)C(C)C)C(C)C)C(=O)N1CCC[C@H]1C(=O)N[C@H](C(=O)N[C@@H](CC(C)C)C(=O)N[C@@H](CCC(N)=O)C(=O)N[C@@H](CO)C(=O)N1CCC[C@H]1C(=O)N[C@H](C(=O)N[C@H](C(=O)N[C@@H](CCC(=O)O)C(=O)O)C(C)C)[C@@H](C)O)[C@@H](C)O` [RVA57–74], the values for the pIC50 at HLA-DRB1*04:04 and at HLA-DRB1*09:01 were 5.39 and 5.02, respectively.

For the compound INLRTNNSSTIVVPYIN [RVC258–274], the pIC50 at HLA-DRB1*04:04 was 5.46; on HLA-DRB1*07:01, 6.39; at HLA-DRB1*09:01 it was 6.08; on HLA-DRB1*13:02 it was 7.40.

Regarding “YGDDVIFSY [RVA2029–2037, reference compound]”, the “IFNγ recall response in ELISPOT” value in [1] is recorded as “not immunogenic in IFNγ ELISPOT assays”.

On to `CC(C)C[C@H](NC(=O)[C@H](Cc1ccc(O)cc1)NC(=O)[C@H](Cc1c[nH]cn1)NC(=O)[C@@H]1CCCN1C(=O)[C@H](Cc1c[nH]c2ccccc12)NC(=O)[C@@H](NC(=O)CNC(=O)[C@H](Cc1ccc(O)cc1)NC(=O)CNC(=O)[C@@H](NC(=O)[C@@H](NC(=O)[C@H](C)NC(=O)[C@H](CC(N)=O)NC(=O)[C@H](C)NC(=O)[C@@H](N)C(C)C)C(C)C)C(C)C)C(C)C)C(=O)N[C@H](C(=O)N1CCC[C@H]1C(=O)N[C@@H](CCC(=O)O)C(=O)O)[C@@H](C)O` [RVA97–114], for which the pIC50 on HLA-DRB1*04:04 was 5.25; at HLA-DRB1*07:01, 5.89; on HLA-DRB1*08:02, 6.34; on HLA-DRB1*09:01 it was 4.94; on HLA-DRB1*11:01 it was 5.96; on HLA-DRB1*11:04 it was 4.71. Besides, at HLA-DRB1*13:02, the negative logarithm of the IC50 (pIC50) was 4.94.

Take DLPYVTYLKDELR [RVC1835–1847]: the pIC50 is 6.11 on HLA-DRB1*04:04 and 5.59 on HLA-DRB1*08:02.

Consider KEKFRDIRRFIP [RVC1582–1592], for which the pIC50 was 5.06 on HLA-DRB1*04:04; 4.89 on HLA-DRB1*07:01; 7.36 on HLA-DRB1*08:02; 5.56 at HLA-DRB1*09:01; 7.48 on HLA-DRB1*11:01; 7.00 at HLA-DRB1*11:04.

As to GLEPLDLNTSAGFPYV [RVC1791–1806], the pIC50 at HLA-DRB1*03:01 was 5.08; on HLA-DRB1*04:04, 5.96; at HLA-DRB1*07:01, 5.92; on HLA-DRB1*13:02 it was 7.21.

On to “YEIQESEYYPKHIQY [RVC945–959, RV C 2A peptide, position 945–959]”, for which the “IFNγ recall response in ELISPOT” value in [1] is reported as “able to stimulate IFNγ production by T cells in at least one donor”.

On to `CC[C@H](C)[C@H](NC(=O)[C@@H](NC(=O)[C@H](CO)NC(=O)[C@@H](N)CC(=O)O)[C@@H](C)O)C(=O)N[C@H](C(=O)N[C@@H](CO)C(=O)N[C@@H](CCC(N)=O)C(=O)N[C@@H](CC(=O)O)C(=O)N[C@H](C(=O)N[C@@H](C)C(=O)N[C@@H](CC(N)=O)C(=O)N[C@@H](C)C(=O)N[C@H](C(=O)N[C@H](C(=O)NCC(=O)N[C@@H](Cc1ccc(O)cc1)C(=O)NCC(=O)N[C@H](C(=O)O)C(C)C)C(C)C)C(C)C)C(C)C)[C@@H](C)O` [RVA89–106], for which the pIC50 was 7.72 at HLA-DRB1*04:04; 6.06 at HLA-DRB1*07:01; 5.29 at HLA-DRB1*08:02; 5.92 at HLA-DRB1*09:01; 5.23 at HLA-DRB1*11:04; 5.18 at HLA-DRB1*13:02.

For the origin of these results see PMC8471592, “Characterization of Conserved and Promiscuous Human Rhinovirus CD4 T Cell Epitopes” (Cells, 2021).
